ChEMBL document CHEMBL2321862, “Development and evaluation of novel phosphotyrosine mimetic inhibitors targeting the Src homology 2 domain of signaling lymphocytic activation molecule (SLAM) associated protein” (J Med Chem, 2013)
Calls of active or inactive are those of the source. How the calls were made is not given here.

Columns and labels:
[1] = molecular target: T1, SH2 domain-containing protein 1A (Homo sapiens) (UniProt O60880); experiment: Inhibition of recombinant 6-His-tagged SLAM associated protein SH2 domain (unknown origin) expressed in Escherichia coli BL21(DE3) binding to biotinyl-KKSLTIpYAQVQK-NH2 attached to NeutrAvidin-coated plates using p-nitrophenyl phosphate as substrate at 100 uM after 1 hr
T1 sequence (whole entry): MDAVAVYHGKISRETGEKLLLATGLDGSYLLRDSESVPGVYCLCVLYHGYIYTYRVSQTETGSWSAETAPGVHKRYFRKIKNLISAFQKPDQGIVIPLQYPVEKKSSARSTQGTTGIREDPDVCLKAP

[2] = molecular target: T1, SH2 domain-containing protein 1A (Homo sapiens); experiment: Inhibition of recombinant 6-His-tagged SLAM associated protein SH2 domain (unknown origin) expressed in Escherichia coli BL21(DE3) binding to biotinyl-KKSLTIpYAQVQK-NH2 attached to NeutrAvidin-coated plates using p-nitrophenyl phosphate as substrate at 10 uM after 1 hr relative to control

Row | SMILES | inhibition [1] | fold change (FC) [2]
1 | COC(=O)[C@H](Cc1ccc2c(c1)COP(=O)(O)O2)NC(=O)[C@H](Cc1cn(C(=O)OC(C)(C)C)c2ccccc12)NC(=O)OCC1c2ccccc2-c2ccccc21 | Active | 1.2
2 | COC(=O)[C@H](Cc1ccc2c(c1)COP(=O)(O)O2)NC(=O)[C@H](CCC(=O)NC(c1ccccc1)(c1ccccc1)c1ccccc1)NC(=O)OCC1c2ccccc2-c2ccccc21 | Active | 1.11
3 | COC(=O)[C@H](Cc1ccc2c(c1)COP(=O)(O)O2)NC(=O)[C@H](CC(C)C)NC(=O)OCC1c2ccccc2-c2ccccc21 | Active | 1.17
4 | COC(=O)[C@H](Cc1ccc2c(c1)COP(=O)(O)O2)NC(=O)[C@H](Cc1ccc2c(c1)COP(=O)(O)O2)NC(=O)OCC1c2ccccc2-c2ccccc21 | Active | 1.09
5 | CC[C@H](C)[C@H](NC(=O)[C@H](Cc1ccc2c(c1)COP(=O)(O)O2)NC(=O)OCC1c2ccccc2-c2ccccc21)C(N)=O | Active | 1.05
6 | COC(=O)[C@H](Cc1ccc2c(c1)COP(=O)(O)O2)NC(=O)[C@H](CC(N)=O)NC(=O)OCC1c2ccccc2-c2ccccc21 | Active | 0.8
7 | NC(=O)[C@H](Cc1ccc(O)cc1)NC(=O)[C@H](Cc1ccc2c(c1)COP(=O)(O)O2)NC(=O)OCC1c2ccccc2-c2ccccc21 | Active | 0.95
8 | COC(=O)[C@H](Cc1ccc2c(c1)COP(=O)(O)O2)NC(=O)[C@H](CCC(N)=O)NC(=O)OCC1c2ccccc2-c2ccccc21 | Active | 1.09
9 | COC(=O)[C@H](Cc1ccc2c(c1)COP(=O)(O)O2)NC(=O)[C@H](CCCNC(=N)NS(=O)(=O)c1c(C)c(C)c2c(c1C)CC(C)(C)O2)NC(=O)OCC1c2ccccc2-c2ccccc21 | Active | 0.75
10 | COC(=O)[C@H](Cc1ccc2c(c1)COP(=O)(O)O2)NC(=O)[C@H](CC(=O)O)NC(=O)OCC1c2ccccc2-c2ccccc21 | Active | 0.84
11 | COC(=O)[C@H](Cc1ccc2c(c1)COP(=O)(O)O2)NC(=O)CNC(=O)OCC1c2ccccc2-c2ccccc21 | Active | 0.77
12 | NC(=O)[C@H](CC(=O)NC(c1ccccc1)(c1ccccc1)c1ccccc1)NC(=O)[C@H](Cc1ccc2c(c1)COP(=O)(O)O2)NC(=O)OCC1c2ccccc2-c2ccccc21 | Active | 1.03
13 | NC(=O)[C@H](CCC(=O)NC(c1ccccc1)(c1ccccc1)c1ccccc1)NC(=O)[C@H](Cc1ccc2c(c1)COP(=O)(O)O2)NC(=O)OCC1c2ccccc2-c2ccccc21 | Active | 1.07
14 | COC(=O)[C@H](Cc1ccc2c(c1)COP(=O)(O)O2)NC(=O)[C@H](CCC(=O)O)NC(=O)OCC1c2ccccc2-c2ccccc21 | Active | 0.95
15 | COC(=O)[C@H](Cc1ccc2c(c1)COP(=O)(O)O2)NC(=O)[C@H](Cc1ccccc1)NC(=O)OCC1c2ccccc2-c2ccccc21 | Active | 0.84
16 | COC(=O)[C@H](Cc1ccc2c(c1)COP(=O)(O)O2)NC(=O)[C@H](CCCNC(=N)N)NC(=O)OCC1c2ccccc2-c2ccccc21 | Active | 0.91
17 | COC(=O)[C@H](Cc1ccc2c(c1)COP(=O)(O)O2)NC(=O)[C@H](Cc1c[nH]cn1)NC(=O)OCC1c2ccccc2-c2ccccc21 | Active | 0.89
18 | COC(=O)[C@H](Cc1ccc2c(c1)COP(=O)(O)O2)NC(=O)[C@@H](NC(=O)OCC1c2ccccc2-c2ccccc21)[C@@H](C)OC(C)(C)C | Active | 0.85

Row | SMILES | inhibition [1] | fold change (FC) [2]
19 | CC(C)(C)OC[C@H](NC(=O)[C@H](Cc1ccc2c(c1)COP(=O)(O)O2)NC(=O)OCC1c2ccccc2-c2ccccc21)C(N)=O | Active | 1.27
20 | NC(=O)[C@@H]1CCCN1C(=O)[C@H](Cc1ccc2c(c1)COP(=O)(O)O2)NC(=O)OCC1c2ccccc2-c2ccccc21 | Active | 1.05
21 | COC(=O)[C@H](Cc1ccc2c(c1)COP(=O)(O)O2)NC(=O)[C@H](CCCCNC(=O)OC(C)(C)C)NC(=O)OCC1c2ccccc2-c2ccccc21 | Active | 0.85
22 | CSCC[C@H](NC(=O)[C@H](Cc1ccc2c(c1)COP(=O)(O)O2)NC(=O)OCC1c2ccccc2-c2ccccc21)C(N)=O | Active | 0.91
23 | C[C@H](NC(=O)[C@H](Cc1ccc2c(c1)COP(=O)(O)O2)NC(=O)OCC1c2ccccc2-c2ccccc21)C(N)=O | Active | 1.09
24 | CC(C)(C)OC(=O)CC[C@H](NC(=O)[C@H](Cc1ccc2c(c1)COP(=O)(O)O2)NC(=O)OCC1c2ccccc2-c2ccccc21)C(N)=O | Active | 1.47
25 | C[C@@H](O)[C@H](NC(=O)[C@H](Cc1ccc2c(c1)COP(=O)(O)O2)NC(=O)OCC1c2ccccc2-c2ccccc21)C(N)=O | Active | 1.22
26 | COC(=O)[C@H](Cc1ccc2c(c1)COP(=O)(O)O2)NC(=O)[C@@H](NC(=O)OCC1c2ccccc2-c2ccccc21)C(C)C | Active | 1.29
27 | CC(C)(C)OC(=O)C[C@H](NC(=O)[C@H](Cc1ccc2c(c1)COP(=O)(O)O2)NC(=O)OCC1c2ccccc2-c2ccccc21)C(N)=O | Active | 1.24
28 | NCCCC[C@H](NC(=O)[C@H](Cc1ccc2c(c1)COP(=O)(O)O2)NC(=O)OCC1c2ccccc2-c2ccccc21)C(N)=O | Active | 1.22
29 | NC(=O)[C@H](Cc1c[nH]c2ccccc12)NC(=O)[C@H](Cc1ccc2c(c1)COP(=O)(O)O2)NC(=O)OCC1c2ccccc2-c2ccccc21 | Active | 1.36
30 | CC(C)[C@H](NC(=O)[C@H](Cc1ccc2c(c1)COP(=O)(O)O2)NC(=O)OCC1c2ccccc2-c2ccccc21)C(N)=O | Active | 1
31 | NC(=O)[C@H](CCC(=O)O)NC(=O)[C@H](Cc1ccc2c(c1)COP(=O)(O)O2)NC(=O)OCC1c2ccccc2-c2ccccc21 | Active | 1.31
32 | NC(=O)CC[C@H](NC(=O)[C@H](Cc1ccc2c(c1)COP(=O)(O)O2)NC(=O)OCC1c2ccccc2-c2ccccc21)C(N)=O | Active | 0.99
33 | COC(=O)[C@H](Cc1ccc2c(c1)COP(=O)(O)O2)NC(=O)[C@H](CCC(=O)OC(C)(C)C)NC(=O)OCC1c2ccccc2-c2ccccc21 | Active | 1.1
34 | COC(=O)[C@H](Cc1ccc2c(c1)COP(=O)(O)O2)NC(=O)[C@H](CC(=O)OC(C)(C)C)NC(=O)OCC1c2ccccc2-c2ccccc21 | Active | 0.9
35 | C[C@@H](OC(C)(C)C)[C@H](NC(=O)[C@H](Cc1ccc2c(c1)COP(=O)(O)O2)NC(=O)OCC1c2ccccc2-c2ccccc21)C(N)=O | Active | 1.13
36 | CC(C)(C)Oc1ccc(C[C@H](NC(=O)[C@H](Cc2ccc3c(c2)COP(=O)(O)O3)NC(=O)OCC2c3ccccc3-c3ccccc32)C(N)=O)cc1 | Active | 1.24
